Reference: ChEMBL document CHEMBL3885861, “Open TG-GATES”

Species on record: Rattus norvegicus
Experiment: Open TG-GATES - Regimen: Daily Repeat
Type: toxicity, organism-based, Sprague-Dawley
Parameters: regimen Daily Repeat, gender Male, age 6 weeks
Details: in vivo, po, 1000 mg/kg, route gavage, dose level High; for APTT / Bas / Eos / Fbg / Hb / Ht / Lym / MCH / MCHC / MCV / Mono / Neu / PT / Plat / RBC / Ret / WBC: tissue Blood; for KIDNEY_L / KIDNEY_R / KIDNEY_TOTAL: tissue Kidney; for LIVER: tissue Liver; for A/G / ALP / ALT / AST / BUN / CRE / Ca / Cl / DBIL / GLC / IP / K / LDH / Na / PL / RALB / TBIL / TC / TG / TP / gamma-GTP: tissue Plasma

## O=C(N[C@H](CO)[C@H](O)c1ccc([N+](=O)[O-])cc1)C(Cl)Cl [CHLORAMPHENICOL]
72 h, time 3 day
  TERMINAL_BW: 243.9 g
  APTT: 17 s
  Bas: 0%
  Eos: 1.4%
  Fbg: 313.4 mg/dL
  Hb: 13.3 g/dL
  Ht: 40.7%
  Lym: 87.8%
  MCH: 21.1 pg
  MCHC: 32.7%
  MCV: 64.6 fL
  Mono: 3.2%
  Neu: 7%
  PT: 14.6 s
  Plat: 109.7 x10_4/uL
  RBC: 630.6 x10_4/ul
  Ret: 2.3%
  WBC: 63.9 x10_2/uL
  KIDNEY_L: 1.1 g
  KIDNEY_R: 1.1 g
  KIDNEY_TOTAL: 2.2 g
  LIVER: 13.2 g
  A/G: 0.9
  ALP: 1258.6 IU/L
  ALT: 41 IU/L
  AST: 75 IU/L
  BUN: 16.6 mg/dL
  CRE: 0.2 mg/dL
  Ca: 10.5 mg/dL
  Cl: 106.8 meq/L
  DBIL: 0.012 mg/dL
  GLC: 168.4 mg/dL
  IP: 6.2 mg/dL
  K: 4.3 meq/L
  LDH: 85.6 IU/L
  Na: 141.6 meq/L
  PL: 138.6 mg/dL
  RALB: 2.4 g/dL
  TBIL: 0.05 mg/dL
  TC: 72.6 mg/dL
  TG: 82.6 mg/dL
  TP: 5.2 g/dL
  gamma-GTP: 1 IU/L
[…], time 7 day
  TERMINAL_BW: 275.6 g
  APTT: 16.3 s
  Bas: 0%
  Eos: 1%
  Fbg: 339.2 mg/dL
  Hb: 13 g/dL
  Ht: 40%
  Lym: 84.4%
  MCH: 20.6 pg
  MCHC: 32.5%
  MCV: 63.3 fL
  Mono: 2.4%
  Neu: 11.4%
  PT: 14.8 s
  Plat: 126.1 x10_4/uL
  RBC: 631.6 x10_4/ul
  Ret: 4.9%
  WBC: 79.2 x10_2/uL
  KIDNEY_L: 1.2 g
  KIDNEY_R: 1.2 g
  KIDNEY_TOTAL: 2.4 g
  LIVER: 15.2 g
  A/G: 0.9
  ALP: 1416.6 IU/L
  ALT: 50.6 IU/L
  AST: 77.4 IU/L
  BUN: 15.8 mg/dL
  CRE: 0.2 mg/dL
  Ca: 11.2 mg/dL
  Cl: 105.4 meq/L
  DBIL: 0.012 mg/dL
  GLC: 179.4 mg/dL
  IP: 8.8 mg/dL
  K: 4.1 meq/L
  LDH: 92.8 IU/L
  Na: 143.6 meq/L
  PL: 136.2 mg/dL
  RALB: 2.7 g/dL
  TBIL: 0.052 mg/dL
  TC: 67.8 mg/dL
  TG: 71.8 mg/dL
  TP: 5.8 g/dL
  gamma-GTP: 1 IU/L
[…], time 14 day
  TERMINAL_BW: 327.3 g
  APTT: 15.6 s
  Bas: 0%
  Eos: 1%
  Fbg: 325.6 mg/dL
  Hb: 13.9 g/dL
  Ht: 42.9%
  Lym: 87.2%
  MCH: 20.6 pg
  MCHC: 32.3%
  MCV: 63.6 fL
  Mono: 2.8%
  Neu: 8.4%
  PT: 14.9 s
  Plat: 116.9 x10_4/uL
  RBC: 675.6 x10_4/ul
  Ret: 4.4%
  WBC: 86.3 x10_2/uL
  KIDNEY_L: 1.4 g
  KIDNEY_R: 1.3 g
  KIDNEY_TOTAL: 2.7 g
  LIVER: 18.1 g
  A/G: 0.9
  ALP: 1573.2 IU/L
  ALT: 50.6 IU/L
  AST: 72.6 IU/L
  BUN: 17.8 mg/dL
  CRE: 0.2 mg/dL
  Ca: 11 mg/dL
  Cl: 105.6 meq/L
  DBIL: 0.016 mg/dL
  GLC: 179.2 mg/dL
  IP: 7.2 mg/dL
  K: 4.1 meq/L
  LDH: 53.6 IU/L
  Na: 144 meq/L
  PL: 149.8 mg/dL
  RALB: 2.7 g/dL
  TBIL: 0.046 mg/dL
  TC: 71.4 mg/dL
  TG: 79.2 mg/dL
  TP: 5.7 g/dL
  gamma-GTP: 1 IU/L
[…], time 28 day
  TERMINAL_BW: 381.6 g
  APTT: 16.3 s
  Bas: 0%
  Eos: 1.2%
  Fbg: 303 mg/dL
  Hb: 14.6 g/dL
  Ht: 42.8%
  Lym: 87.4%
  MCH: 19.6 pg
  MCHC: 34.1%
  MCV: 57.3 fL
  Mono: 1.6%
  Neu: 9.2%
  PT: 15.5 s
  Plat: 106.7 x10_4/uL
  RBC: 746.4 x10_4/ul
  Ret: 1.7%
  WBC: 78.6 x10_2/uL
  KIDNEY_L: 1.6 g
  KIDNEY_R: 1.6 g
  KIDNEY_TOTAL: 3.2 g
  LIVER: 20.9 g
  A/G: 0.9
  ALP: 936.8 IU/L
  ALT: 43.6 IU/L
  AST: 72.8 IU/L
  BUN: 17 mg/dL
  CRE: 0.2 mg/dL
  Ca: 10.4 mg/dL
  Cl: 105.8 meq/L
  DBIL: 0.016 mg/dL
  GLC: 164.4 mg/dL
  IP: 6.3 mg/dL
  K: 3.6 meq/L
  LDH: 53.4 IU/L
  Na: 145.2 meq/L
  PL: 131.6 mg/dL
  RALB: 2.6 g/dL
  TBIL: 0.06 mg/dL
  TC: 57.8 mg/dL
  TG: 74.8 mg/dL
  TP: 5.6 g/dL
  gamma-GTP: 1 IU/L
